Reference: ChEMBL document CHEMBL1126299, “Synthesis and structure-activity relationships of cephalosporins with C-3' catechol-containing residues” (J Med Chem, 1992)
Values after ≈ are worked out from the molar mass of the structure shown.

Assays:
[1] = tested on: Pseudomonas aeruginosa; experiment: microbe, parasite or virus in culture
Description: Minimum inhibitory concentration in Pseudomonas aeruginosa,799WT parent organism

[2] = tested on: Citrobacter freundii; experiment: microbe, parasite or virus in culture
Description: Minimum inhibitory concentration in Citrobacter freundii, I+382010 inducible type 1 lactamase producer

[3] = The compound was evaluated for area under the curve in marmosets; type: ADME; settings: callithrix, in vivo
[4] = species: Homo sapiens; experiment: Compound is evaluated for serum protein binding in human blood (protein binding in marmoset blood); type: functional
[5] = tested on: Enterobacter cloacae; experiment: microbe, parasite or virus in culture
Description: Minimum inhibitory concentration in Enterobacter cloacae, P99+ constitutive depressed type 1 lactamase producer

[6] = molecular target: Beta-lactamase TEM (Escherichia coli) (UniProt P62593); experiment: The dissociation constant of compound was tested for beta-Lactamase stability
Sequence of Beta-lactamase TEM (Escherichia coli) (P62593 whole entry): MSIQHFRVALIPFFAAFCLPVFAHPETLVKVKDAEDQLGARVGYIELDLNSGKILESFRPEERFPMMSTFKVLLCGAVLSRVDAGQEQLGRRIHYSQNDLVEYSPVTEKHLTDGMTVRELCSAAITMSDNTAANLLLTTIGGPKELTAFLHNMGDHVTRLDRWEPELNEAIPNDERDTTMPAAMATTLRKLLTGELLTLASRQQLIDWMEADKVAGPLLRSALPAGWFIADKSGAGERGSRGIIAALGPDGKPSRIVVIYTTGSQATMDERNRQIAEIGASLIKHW

[7] = tested on: Pseudomonas aeruginosa; experiment: microbe, parasite or virus in culture; remark: listed apart in the source
Description: Minimum inhibitory concentration in Pseudomonas aeruginosa, 18SH constitutive depressed type 1 lactamase producer

[8] = tested on: Enterobacter cloacae; experiment: microbe, parasite or virus in culture; remark: listed apart in the source
Description: Minimum inhibitory concentration in Enterobacter cloacae, I+401029 inducible type 1 lactamase producer

[9] = tested on: Pseudomonas aeruginosa; experiment: microbe, parasite or virus in culture; remark: listed apart in the source
Description: Minimum inhibitory concentration in Pseudomonas aeruginosa,799/61 permeability mutant

[10] = The compound was tested for % urinary recovery in marmosets at the dose of 3 mg/kg; type: ADME, organism-based; design: dose 3 mg/kg; settings: callithrix, urine, read-out: Recovery
[11] = tested on: Enterobacter cloacae; experiment: The compound was tested for minimum inhibitory concentration in Enterobacter cloacae, DR 401108 constitutive depressed type 1 lactamase producer; type: functional
[12] = tested on: Pseudomonas aeruginosa; experiment: microbe, parasite or virus in culture; remark: listed apart in the source
Description: Minimum inhibitory concentration in Pseudomonas aeruginosa, 18S inducible type 1 lactamase producer

[13] = tested on: Providencia stuartii; experiment: microbe, parasite or virus in culture
Description: Minimum inhibitory concentration in Pseudomonas stuartii, DR 442049 constitutive depressed type 1 lactamase producer

[14] = tested on: Enterobacter cloacae; experiment: microbe, parasite or virus in culture; remark: listed apart in the source
Description: Minimum inhibitory concentration in Enterobacter cloacae, P99- inducible type 1 lactamase producer

[15] = tested on: Citrobacter freundii; experiment: microbe, parasite or virus in culture; remark: listed apart in the source
Description: Minimum inhibitory concentration in Citrobacter freundii, DR 382031 constitutive depressed type 1

[16] = tested on: Providencia stuartii; experiment: microbe, parasite or virus in culture; remark: listed apart in the source
Description: Minimum inhibitory concentration in Pseudomonas stuartii, I+442019 inducible type 1 lactamase producer

[17] = The half life period in marmosets; type: ADME; settings: callithrix, in vivo
[18] = The compound was evaluated for area under the curve; type: ADME
[19] = The half life period was tested; type: ADME
[20] = tested on: Staphylococcus aureus; experiment: microbe, parasite or virus in culture
Description: The compound was tested for minimum inhibitory concentration in Staphylococcus aureus Oxford penicillin sensitive Staphylococcus aureus

[21] = tested on: Escherichia coli; experiment: microbe, parasite or virus in culture
Description: In vitro minimum inhibitory concentration against Escherichia coli (DC0 parent organism).

[22] = tested on: Escherichia coli; experiment: microbe, parasite or virus in culture; remark: listed apart in the source
Description: In vitro minimum inhibitory concentration against Escherichia coli (DC2 permeability mutant).

[23] = tested on: Staphylococcus aureus; experiment: microbe, parasite or virus in culture; remark: listed apart in the source
Description: The compound was tested for minimum inhibitory concentration in Staphylococcus aureus,147N penicillin sensitive Staphylococcus aureus

[24] = tested on: Enterobacter cloacae; experiment: microbe, parasite or virus in culture; remark: listed apart in the source
Description: Minimum inhibitory concentration in Enterobacter cloacae, DR 401108 constitutive depressed type 1 lactamase producer

[25] = tested on: Pseudomonas aeruginosa; experiment: microbe, parasite or virus in culture; remark: listed apart in the source
Description: In vitro minimum inhibitory concentration against Pseudomonas aeruginosa (PU21).

| Compound | MIC [1] [µg/mL] | MIC [2] [µg/mL] | AUC [3] [mg/h/L] | Activity [4] [%] | MIC [5] [µg/mL] | pKa [6] | MIC [7] [µg/mL] | MIC [8] [µg/mL] | MIC [9] [µg/mL] | dose excreted [10] [%] | MIC [12] [µg/mL] | MIC [13] [µg/mL] | MIC [14] [µg/mL] | MIC [15] [µg/mL] | MIC [16] [µg/mL] | half-life [17] [h] | also measured |
| --- | --- | --- | --- | --- | --- | --- | --- | --- | --- | --- | --- | --- | --- | --- | --- | --- | --- |
| CC(C)(O/N=C(\C(=O)N[C@@H]1C(=O)N2C(C(=O)O)=C(CNC(=O)c3cc(Cl)c(O)c(O)c3Cl)CSC12)c1csc(N)n1)C(=O)O (stereo partly drawn) | 0.008 (≈ 0.0116 µM) | 0.008 (≈ 0.0116 µM) | 461 | 98.7 | 4 (≈ 5.8 µM) | 6.3 | 0.015 (≈ 0.0218 µM) | 0.008 (≈ 0.0116 µM) | 0.008 (≈ 0.0116 µM) | 16.2 | 0.008 (≈ 0.0116 µM) | 1 (≈ 1.45 µM) | 0.03 (≈ 0.0435 µM) | 2 (≈ 2.9 µM) | 0.06 (≈ 0.087 µM) | 8.22 | MIC [11]: 4 µg/mL (≈ 5.8 µM) |
| CC(C)(O/N=C(\C(=O)N[C@@H]1C(=O)N2C(C(=O)[O-])=C(C[n+]3ccccc3)CS[C@H]12)c1csc(N)n1)C(=O)O [CEFTAZIDIME] | 0.125 (≈ 0.229 µM) | 0.125 (≈ 0.229 µM) |  |  |  |  |  |  | 0.008 (≈ 0.0146 µM) |  | 2 (≈ 3.66 µM) | 4 (≈ 7.32 µM) |  | 128 (≈ 234 µM) | 0.25 (≈ 0.457 µM) |  | AUC [18]: 14 mg/h/L; half-life [19]: 0.7 h |
| CCn1cc(C(=O)NCC2=C(C(=O)O)N3C(=O)[C@@H](NC(=O)/C(=N\OC(C)(C)C(=O)O)c4csc(N)n4)C3SC2)c(=O)c2cc(O)c(O)cc21 (stereo partly drawn) | 0.008 (≈ 0.0112 µM) | 0.008 (≈ 0.0112 µM) | 238.5 | 99.2 | 0.25 (≈ 0.349 µM) | 7.2 | 0.008 (≈ 0.0112 µM) | 0.06 (≈ 0.0838 µM) | 0.008 (≈ 0.0112 µM) | 13.9 | 0.008 (≈ 0.0112 µM) | 8 (≈ 11.2 µM) | 0.06 (≈ 0.0838 µM) | 0.125 (≈ 0.175 µM) | 0.25 (≈ 0.349 µM) | 3.47 | MIC [20]: 16 µg/mL (≈ 22.4 µM); MIC [21]: 0.008 µg/mL (≈ 0.0112 µM); MIC [22]: 0.008 µg/mL (≈ 0.0112 µM); MIC [23]: 16 µg/mL (≈ 22.4 µM); MIC [24]: 1 µg/mL (≈ 1.4 µM); MIC [25]: 0.06 µg/mL (≈ 0.0838 µM) |
